In this assay the test system is L1210 leukemia ip in BDF1 mice, survival T/C. The assay can be described thus: NCI In Vivo Anticancer Drug Screen. Data for tumor model L1210 Leukemia (intraperitoneal) in B6D2F1 (BDF1) mice. Particulars: endpoint: mean survival time, higher = longer survival. Put shortly: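 Transplantable tumor model; survival measured in treated vs vehicle control mice. Value = treated/control.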

The mark [1] stands for this setting: dose: 100.0 mg/kg/injection, schedule: Q04DX003 (ip), vehicle: saline.
Where [2] appears, read: dose: 200.0 mg/kg/injection, schedule: Q04DX003 (ip), vehicle: saline.
Setting [3] is: dose: 100.0 mg/kg/injection, schedule: Q01DX009 (ip), vehicle: Klucel (hydroxypropylcellulose) (HPC).
The mark [4] stands for this setting: dose: 100.0 mg/kg/injection, schedule: Q04DX003 (ip), vehicle: Klucel (hydroxypropylcellulose) (HPC).
Setting [5] is: dose: 200.0 mg/kg/injection, schedule: Q01DX009 (ip), vehicle: Klucel (hydroxypropylcellulose) (HPC).
The mark [6] stands for this setting: dose: 200.0 mg/kg/injection, schedule: Q04DX003 (ip), vehicle: Klucel (hydroxypropylcellulose) (HPC).
The mark [7] stands for this setting: dose: 400.0 mg/kg/injection, schedule: Q01DX009 (ip), vehicle: Klucel (hydroxypropylcellulose) (HPC).
Where [8] appears, read: dose: 400.0 mg/kg/injection, schedule: Q04DX003 (ip), vehicle: Klucel (hydroxypropylcellulose) (HPC).
The mark [9] stands for this setting: dose: 100.0 mg/kg/injection, schedule: Q04DX003 (ip), vehicle: other.
Where [10] appears, read: dose: 200.0 mg/kg/injection, schedule: Q04DX003 (ip), vehicle: other.
[11] abbreviates: dose: 100.0 mg/kg/injection, schedule: Q01DX Z (ip), vehicle: methylcellulose (MC).
[12] abbreviates: dose: 100.0 mg/kg/injection, schedule: Q04DX003 (ip), vehicle: saline with Tween-80.
Where [13] appears, read: dose: 200.0 mg/kg/injection, schedule: Q04DX003 (ip), vehicle: saline with Tween-80.
Where [14] appears, read: dose: 400.0 mg/kg/injection, schedule: Q04DX003 (ip), vehicle: saline with Tween-80.
Where [15] appears, read: dose: 25.0 mg/kg/injection, schedule: Q01DX009 (ip), vehicle: saline.
The mark [16] stands for this setting: dose: 25.0 mg/kg/injection, schedule: Q04DX003 (ip), vehicle: saline.
The mark [17] stands for this setting: dose: 50.0 mg/kg/injection, schedule: Q01DX009 (ip), vehicle: saline.
[18] abbreviates: dose: 50.0 mg/kg/injection, schedule: Q04DX003 (ip), vehicle: saline.
Setting [19] is: dose: 100.0 mg/kg/injection, schedule: Q01DX009 (ip), vehicle: saline.
The mark [20] stands for this setting: dose: 100.0 mg/kg/injection, schedule: Q01DX009 (ip), vehicle: saline with Tween-80.
[21] abbreviates: dose: 200.0 mg/kg/injection, schedule: Q01DX009 (ip), vehicle: saline with Tween-80.
Where [22] appears, read: dose: 400.0 mg/kg/injection, schedule: Q01DX009 (ip), vehicle: saline with Tween-80.

Several values for one entry are separate records, joined by “and”; a condition that tells them apart may be missing. Identical values can stand only once. Inconclusive results and toxic doses are left out.

Consider `O=c1[nH]cc(O)c(=O)[nH]1`, for which the T/C runs as follows: (dose: 50.0 mg/kg/injection, schedule: Q01DX001 (ip), vehicle: carboxymethylcellulose (CMC)) 100 % of control; (dose: 62.5 mg/kg/injection, schedule: Q#A X018 (ip), vehicle: saline) 98 % of control; (dose: 100.0 mg/kg/injection, schedule: Q01DX001 (ip), vehicle: carboxymethylcellulose (CMC)) 102 % of control; (dose: 125.0 mg/kg/injection, schedule: Q#A X018 (ip), vehicle: saline) 104 % of control; (dose: 176.0 mg/kg/injection, schedule: Q01DX Z (ip), vehicle: carboxymethylcellulose (CMC)) 107 % of control; (dose: 200.0 mg/kg/injection, schedule: Q01DX001 (ip), vehicle: carboxymethylcellulose (CMC)) 107 % of control. Moreover, the T/C (dose: 250.0 mg/kg/injection, schedule: Q#A X018 (ip), vehicle: saline) was 115 % of control; the T/C (dose: 267.0 mg/kg/injection, schedule: Q01DX015 (ip), vehicle: saline) was 115 % of control; the T/C (dose: 267.0 mg/kg/injection, schedule: Q01DX Z (ip), vehicle: carboxymethylcellulose (CMC)) is 120 % of control; the T/C (dose: 400.0 mg/kg/injection, schedule: Q01DX001 (ip), vehicle: carboxymethylcellulose (CMC)) is 100 % of control; the T/C (dose: 400.0 mg/kg/injection, schedule: Q01DX015 (ip), vehicle: saline) is 120 % of control; the T/C (dose: 600.0 mg/kg/injection, schedule: Q01DX015 (ip), vehicle: saline) was 119 % of control.
Turning to `Nc1nc2c(ncn2CCC(N)C(=O)O)c(=O)[nH]1` (centres undefined), the T/C is 104 % of control under setting [1]; 98 % of control under setting [2]; 107 % of control (dose: 400.0 mg/kg/injection, schedule: Q04DX003 (ip), vehicle: saline).
Consider `Cc1cc(C)c(NC(=O)c2cccc(C(=O)Nc3c(C)cc(C)cc3C)c2)c(C)c1`, for which the T/C runs as follows: under setting [3], 102 % of control; under setting [4], 91 % of control; under setting [5], 104 % of control; under setting [6], 88 % of control; under setting [7], 96 % of control; under setting [8], 88 % of control.
Consider `O=C(/C=C/c1cccc(Br)c1)c1ccc(Cl)cc1`, for which the T/C is 107 % of control (dose: 50.0 mg/kg/injection, schedule: Q01DX009 (ip), vehicle: other); 92 % of control (dose: 100.0 mg/kg/injection, schedule: Q01DX009 (ip), vehicle: other); 89 % of control under setting [9]; 96 % of control (dose: 200.0 mg/kg/injection, schedule: Q01DX009 (ip), vehicle: other); 100 % of control under setting [10].
Take `CCO/C(C)=N/N(C)c1n[n+]([O-])ccc1C`: the T/C reads like this: (dose: 100.0 mg/kg/injection, schedule: Q04DX002 (ip), vehicle: saline) 189 % of control; (dose: 200.0 mg/kg/injection, schedule: Q04DX002 (ip), vehicle: saline) 96 % of control; (dose: 400.0 mg/kg/injection, schedule: Q04DX002 (ip), vehicle: saline) 96 % of control.
For `Cc1cnc(SCc2ccc(F)cc2)nc1N(C)C`, the T/C under setting [11] was 88 % of control.
Regarding `COc1ccc(CCNC(=O)/C=C\C(=O)O)cc1OC`, the T/C was 100 % of control under setting [12], 98 % of control under setting [13] and 96 % of control under setting [14].
With `CCc1c(N)nc(N)nc1Nc1ccc(Cl)c(Cl)c1`, the T/C under setting [11] was 96 % of control.
With `CC(C)C1(Cc2ccccc2)C(=O)NC(=S)NC1=O`, the T/C runs as follows: (dose: 75.0 mg/kg/injection, schedule: Q01DX001 (ip), vehicle: saline) 95 % of control; (dose: 150.0 mg/kg/injection, schedule: Q01DX001 (ip), vehicle: saline) 93 % of control.
Turning to `O=C(CNCc1ccccc1)Oc1c(Cl)c(Cl)c(Cl)c(Cl)c1Cl`, the T/C by setting is: under setting [9], 94 % of control; under setting [10], 93 % of control.
In the case of `Cc1ccc(S(=O)(=O)OCCCCCCCCCCCCCCOS(=O)(=O)c2ccc(C)cc2)cc1`, the T/C under setting [3] is 97 % of control; the T/C under setting [4] is 97 % of control; the T/C under setting [5] is 98 % of control; the T/C under setting [6] was 96 % of control; the T/C under setting [7] was 106 % of control; the T/C under setting [8] was 92 % of control.
With `N#[N+]c1ccccc1-c1nc(N)nc(N)n1`, the T/C runs as follows: under setting [15], 110 % of control; under setting [16], 113 % of control; under setting [17], 100 % of control; under setting [18], 103 % of control; (dose: 100.0 mg/kg/injection, schedule: Q01DX001 (ip), vehicle: saline) 99 % of control; under setting [19], 92 % of control. Further, the T/C under setting [1] is 96 % of control.
For the molecule `O=C(CC(O)c1ccccc1)Nc1cccnc1` (centres undefined), the T/C (dose: 100.0 mg/kg/injection, schedule: Q01DX001 (ip), vehicle: other) is 96 % of control.
In the case of `CCC(CC)CCCC(C)Nc1ccnc2cc(Cl)ccc12` (centres undefined), the T/C was 101 % of control (dose: 6.25 mg/kg/injection, schedule: Q01DX009 (ip), vehicle: saline); 98 % of control (dose: 12.5 mg/kg/injection, schedule: Q01DX009 (ip), vehicle: saline); 95 % of control under setting [15].
For the molecule `CC1(C)C2=CCCC(O)C2(C)CCC1O` (centres undefined), the T/C was 96 % of control (dose: 50.0 mg/kg/injection, schedule: Q01DX009 (ip), vehicle: saline with Tween-80); 96 % of control under setting [20]; 92 % of control under setting [21].
For `CCCCCCCCCCC(=O)CCCC`, the T/C under setting [20] was 100 % of control, the T/C under setting [21] is 102 % of control and the T/C under setting [22] was 104 % of control.
With `CC(=O)c1cccc(NC(=O)Oc2cc(C)c(Cl)c(C)c2)c1`, the T/C (dose: 100.0 mg/kg/injection, schedule: Q01DX001 (ip), vehicle: saline with Tween-80) is 97 % of control; the T/C under setting [20] is 94 % of control and 92 % of control; the T/C (dose: 100.0 mg/kg/injection, schedule: Q04DX002 (ip), vehicle: saline with Tween-80) is 94 % of control and 101 % of control; the T/C under setting [12] is 93 % of control; the T/C (dose: 200.0 mg/kg/injection, schedule: Q01DX001 (ip), vehicle: saline with Tween-80) is 100 % of control; the T/C under setting [21] is 88 % of control and 89 % of control. Also, the T/C was 93 % of control and 89 % of control (dose: 200.0 mg/kg/injection, schedule: Q04DX002 (ip), vehicle: saline with Tween-80); 87 % of control under setting [13]; 98 % of control (dose: 400.0 mg/kg/injection, schedule: Q01DX001 (ip), vehicle: saline with Tween-80); 91 % of control under setting [22]; 96 % of control and 101 % of control (dose: 400.0 mg/kg/injection, schedule: Q04DX002 (ip), vehicle: saline with Tween-80); 90 % of control under setting [14].
`CCOC(=O)CC(=O)C1CCC2C3CC=C4CC(OC(=O)OCC)CCC4(C)C3CCC12C` (centres undefined): the T/C was 104 % of control (dose: 25.0 mg/kg/injection, schedule: Q01DX001 (sc), vehicle: olive oil, sesame oil, peanut oil); 107 % of control (dose: 50.0 mg/kg/injection, schedule: Q01DX001 (sc), vehicle: olive oil, sesame oil, peanut oil); 93 % of control (dose: 100.0 mg/kg/injection, schedule: Q01DX001 (sc), vehicle: olive oil, sesame oil, peanut oil).
`COC(=O)C(C)(N)Cc1ccc(O)cc1` (centres undefined): the T/C is, setting by setting: under setting [17], 102 % of control; under setting [19], 97 % of control; under setting [1], 96 % of control; (dose: 200.0 mg/kg/injection, schedule: Q01DX009 (ip), vehicle: saline) 105 % of control; under setting [2], 93 % of control.
For the molecule `Cc1cccnc1N1CCNC1=O`, the T/C is, setting by setting: under setting [16], 92 % of control; under setting [18], 103 % of control; under setting [1], 96 % of control and 117 % of control.

(Values after PubChem BioAssay AID248 (DTP/NCI, 2004).)
